Read-outs that look alike come from different tables or passages of the source.
Key:
F. trinervia PEPC = target: T1, F. trinervia PEPC (Flaveria trinervia, UniProt P30694); assay: biochemical; assay type: biochemical
T1 construct: the full-length ppcA gene of PEPC from F. trinervia (EMBL-Bank X61304); made in house; host or cells: Escherichia coli BL21(DE3)
T1 sequence (P30694 1-966): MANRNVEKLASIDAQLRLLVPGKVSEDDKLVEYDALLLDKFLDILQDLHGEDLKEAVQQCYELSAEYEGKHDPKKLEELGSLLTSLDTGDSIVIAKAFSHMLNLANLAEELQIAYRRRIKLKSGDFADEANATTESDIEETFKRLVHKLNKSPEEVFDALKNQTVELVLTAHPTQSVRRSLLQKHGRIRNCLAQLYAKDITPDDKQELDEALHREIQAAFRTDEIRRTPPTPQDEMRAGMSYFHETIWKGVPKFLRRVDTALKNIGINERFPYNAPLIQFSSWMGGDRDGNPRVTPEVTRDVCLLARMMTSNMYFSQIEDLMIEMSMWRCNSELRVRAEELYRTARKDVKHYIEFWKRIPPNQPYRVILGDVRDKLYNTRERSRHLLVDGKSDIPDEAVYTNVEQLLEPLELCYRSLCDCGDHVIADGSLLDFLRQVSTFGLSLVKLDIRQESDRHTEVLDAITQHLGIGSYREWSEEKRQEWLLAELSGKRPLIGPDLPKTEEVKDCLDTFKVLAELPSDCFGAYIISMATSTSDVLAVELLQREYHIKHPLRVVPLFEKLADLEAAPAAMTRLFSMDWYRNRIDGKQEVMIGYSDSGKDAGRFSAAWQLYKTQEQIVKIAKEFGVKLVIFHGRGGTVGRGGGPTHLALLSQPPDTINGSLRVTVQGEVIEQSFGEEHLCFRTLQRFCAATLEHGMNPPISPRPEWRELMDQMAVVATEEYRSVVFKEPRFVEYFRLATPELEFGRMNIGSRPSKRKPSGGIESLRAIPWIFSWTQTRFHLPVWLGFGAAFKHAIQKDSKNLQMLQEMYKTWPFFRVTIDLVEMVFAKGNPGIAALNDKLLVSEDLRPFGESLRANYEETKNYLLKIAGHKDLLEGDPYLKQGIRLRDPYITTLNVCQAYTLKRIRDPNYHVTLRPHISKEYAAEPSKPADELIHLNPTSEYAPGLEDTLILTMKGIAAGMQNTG
Description: The IC50 values of small molecule compounds on F. pringlei and F. trinervia PEPCs were determined using PEPC coupled spectrophotometric assay. The amount of NADH oxidized by NADH-malate dehydrogenase was measured by the decrease in absorbance at 340 nm in a Beckman DU-800 spectrophotometer, thus the value is in proportion to the corresponding substrate conversion of the enzyme. […] The reactions were started by adding two folds of the Km value of PEP for each enzyme. The data were analyzed using GraFit (Erithacus Software, UK).

Bacillus subtilis 168 = assay: Bacterial growth in microscale cultivation, B. subtilis; assay type: cell-based; details: relative to control
Description: (§1) The following bacteria were cultivated in the presence of trans-chalcone derived inhibitors: Corynebacterium glutamicum ATCC13032[43], Escherichia coli K-12 MG1655[44], Pseudomonas putida KT2440[45], and Bacillus subtilis 168[46]. The growth of these bacteria was monitored in flower-well plates shaken at 1200 rpm as backscatter at 620 nm (gain 20) using a BioLector® microscale cultivation system (m2p labs, Baesweiler, Germany). For further experimental details please refer to the Supplementary Information.
(§2) medium or the appropriate minimal medium and shaken at 140 rpm overnight. For inoculation of
(§3) the main culture, cells equivalent to an optical density at 600 nm of 0.5 (C. glutamicum, E. coli,
(§4) and P. putida) or 0.25 (B. subtilis) in 800 µL medium were washed and resuspended in fresh
(§5) media. Inhibitor substances were dissolved in DMSO and added to the media to a final
(§6) Since the least polar trans-chalcone and 2’-hydroxychalcone precipitated in the growth media at
(§7) the highest concentrations, the maximal concentration of these compounds was reduced to 400
(§8) µM and 100 µM, respectively. The final backscatter at 620 nm, the growth rate (h-1), and the
(§9) duration of the lag phase of all cultures were determined in a BioLector microscale cultivation
(§10) system in comparison to negative controls supplemented with the solvent DMSO. A longer lag

[1] = test system: Escherichia coli K-12 MG1655; assay: Bacterial growth in microscale cultivation, E. coli; assay type: cell-based; details: relative to control; for activity at 4 µM / activity at 40 µM / activity at 400 µM: Escherichia coli
Description: as §1, §2, §3, §4, §5, §6, §7, §8, §9, §10

[2] = test system: Pseudomonas putida KT2440; assay: Bacterial growth in microscale cultivation, P. putida; assay type: cell-based; details: relative to control; for activity at 4 µM / activity at 40 µM / activity at 400 µM: Pseudomonas putida
Description: as §1, §2, §3, §4, §5, §6, §7, §8, §9, §10

`O=C(/C=C/c1ccc(O)cc1)c1ccccc1O` [Compound 3, 2′,4-Dihydroxychalcone] was tested. Which “Selectivity C4/C3” value (F. trinervia PEPC; C4 PEPC over C3 isoform) did it give?
Its value is 1.6 fold.

What about the IC50 (F. trinervia PEPC; C4 PEPC, read-out: IC50 F. trinervia PEPC) of the same compound?
Its IC50 is 39.8 ± 4.2 µM.

What about the activity at 4 µM (Bacillus subtilis 168; Bacillus subtilis, 168, complex medium, 4 µM, read-out: Final Backscatter) of the same compound?
The activity at 4 µM was 95.2%.

What about the activity at 4 µM (Bacillus subtilis 168; Bacillus subtilis, 168, complex medium, 4 µM, read-out: Growth rate) of the same compound?
Its activity at 4 µM is 99.5%.

And the activity at 40 µM (Bacillus subtilis 168; Bacillus subtilis, 168, complex medium, 40 µM, read-out: Final Backscatter)?
Its activity at 40 µM is 97.1%.

What about the activity at 40 µM (Bacillus subtilis 168; Bacillus subtilis, 168, complex medium, 40 µM, read-out: Growth rate) of the same compound?
Its activity at 40 µM is 108%.

And the activity at 120 µM (Bacillus subtilis 168; Bacillus subtilis, 168, complex medium, 120 µM, read-out: Final Backscatter)?
Its activity at 120 µM is 102%.

What about the activity at 120 µM (Bacillus subtilis 168; Bacillus subtilis, 168, complex medium, 120 µM, read-out: Growth rate) of the same compound?
The activity at 120 µM was 114%.

What about the activity at 400 µM (Bacillus subtilis 168; Bacillus subtilis, 168, complex medium, 400 µM, read-out: Final Backscatter) of the same compound?
The activity at 400 µM was 91.6%.

What about the activity at 400 µM (Bacillus subtilis 168; Bacillus subtilis, 168, complex medium, 400 µM, read-out: Growth rate) of the same compound?
The activity at 400 µM was 92.8%.

And the activity at 4 µM (Bacillus subtilis 168; Bacillus subtilis, 168, minimal medium, 4 µM, read-out: Final Backscatter)?
Its activity at 4 µM is 101%.

And the activity at 4 µM (Bacillus subtilis 168; Bacillus subtilis, 168, minimal medium, 4 µM, read-out: Growth rate)?
Its activity at 4 µM is 130%.

And the activity at 40 µM (Bacillus subtilis 168; Bacillus subtilis, 168, minimal medium, 40 µM, read-out: Final Backscatter)?
Its activity at 40 µM is 99.1%.

And the activity at 40 µM (Bacillus subtilis 168; Bacillus subtilis, 168, minimal medium, 40 µM, read-out: Growth rate)?
Its activity at 40 µM is 119%.

What about the activity at 120 µM (Bacillus subtilis 168; Bacillus subtilis, 168, minimal medium, 120 µM, read-out: Final Backscatter) of the same compound?
The activity at 120 µM was 100%.

What about the activity at 120 µM (Bacillus subtilis 168; Bacillus subtilis, 168, minimal medium, 120 µM, read-out: Growth rate) of the same compound?
The activity at 120 µM was 115%.

And the activity at 400 µM (Bacillus subtilis 168; Bacillus subtilis, 168, minimal medium, 400 µM, read-out: Final Backscatter)?
The activity at 400 µM was 102%.

What about the activity at 400 µM (Bacillus subtilis 168; Bacillus subtilis, 168, minimal medium, 400 µM, read-out: Growth rate) of the same compound?
Its activity at 400 µM is 113%.

What about the “Lag Phase” value (Bacillus subtilis 168; complex medium, 4 µM) of the same compound?
Its value is 105,7%.

And the “Lag Phase” value (Bacillus subtilis 168; complex medium, 40 µM)?
Its value is 105,7%.

And the “Lag Phase” value (Bacillus subtilis 168; complex medium, 120 µM)?
Its value is 125,5%.

What about the “Lag Phase” value (Bacillus subtilis 168; complex medium, 400 µM) of the same compound?
The value was 151,3%.

What about the “Lag Phase” value (Bacillus subtilis 168; minimal medium, 4 µM) of the same compound?
Its value is 99,0%.

And the “Lag Phase” value (Bacillus subtilis 168; minimal medium, 40 µM)?
The value was 101,0%.

And the “Lag Phase” value (Bacillus subtilis 168; minimal medium, 120 µM)?
The value was 111,3%.

And the “Lag Phase” value (Bacillus subtilis 168; minimal medium, 400 µM)?
The value was 151,4%.

What about the activity at 4 µM ([1]; MG1655, complex medium, 4 µM, read-out: Final Backscatter) of the same compound?
Its activity at 4 µM is 101%.

And the activity at 4 µM ([1]; MG1655, complex medium, 4 µM, read-out: Growth rate)?
Its activity at 4 µM is 88.3%.

And the activity at 40 µM ([1]; MG1655, complex medium, 40 µM, read-out: Final Backscatter)?
Its activity at 40 µM is 102%.

What about the activity at 40 µM ([1]; MG1655, complex medium, 40 µM, read-out: Growth rate) of the same compound?
The activity at 40 µM was 95%.

And the activity at 400 µM ([1]; MG1655, complex medium, 400 µM, read-out: Growth rate)?
The activity at 400 µM was 99.2%.

What about the activity at 4 µM ([1]; MG1655, minimal medium, 4 µM, read-out: Final Backscatter) of the same compound?
The activity at 4 µM was 100%.

What about the activity at 4 µM ([1]; MG1655, minimal medium, 4 µM, read-out: Growth rate) of the same compound?
The activity at 4 µM was 106%.

And the activity at 40 µM ([1]; MG1655, minimal medium, 40 µM, read-out: Final Backscatter)?
Its activity at 40 µM is 99.1%.

What about the activity at 40 µM ([1]; MG1655, minimal medium, 40 µM, read-out: Growth rate) of the same compound?
Its activity at 40 µM is 95.3%.

And the activity at 400 µM ([1]; MG1655, minimal medium, 400 µM, read-out: Final Backscatter)?
The activity at 400 µM was 101%.

And the activity at 400 µM ([1]; MG1655, minimal medium, 400 µM, read-out: Growth rate)?
The activity at 400 µM was 108%.

What about the “Lag Phase” value ([1]; complex medium, 4 µM) of the same compound?
The value was 101,4%.

And the “Lag Phase” value ([1]; complex medium, 40 µM)?
Its value is 102,1%.

What about the “Lag Phase” value ([1]; complex medium, 400 µM) of the same compound?
The value was 97,8%.

What about the “Lag Phase” value ([1]; minimal medium, 4 µM) of the same compound?
The value was 99,3%.

And the “Lag Phase” value ([1]; minimal medium, 40 µM)?
Its value is 100,0%.

What about the “Lag Phase” value ([1]; minimal medium, 400 µM) of the same compound?
The value was 98,6%.

What about the activity at 4 µM ([2]; KT2440, complex medium, 4 µM, read-out: Final Backscatter) of the same compound?
The activity at 4 µM was 99.6%.

And the activity at 4 µM ([2]; KT2440, complex medium, 4 µM, read-out: Growth rate)?
The activity at 4 µM was 103%.

And the activity at 40 µM ([2]; KT2440, complex medium, 40 µM, read-out: Final Backscatter)?
The activity at 40 µM was 103%.

And the activity at 40 µM ([2]; KT2440, complex medium, 40 µM, read-out: Growth rate)?
Its activity at 40 µM is 106%.

And the activity at 400 µM ([2]; KT2440, complex medium, 400 µM, read-out: Final Backscatter)?
Its activity at 400 µM is 99.5%.

What about the activity at 400 µM ([2]; KT2440, complex medium, 400 µM, read-out: Growth rate) of the same compound?
Its activity at 400 µM is 108%.

What about the activity at 4 µM ([2]; KT2440, minimal medium, 4 µM, read-out: Final Backscatter) of the same compound?
Its activity at 4 µM is 97.4%.

What about the activity at 4 µM ([2]; KT2440, minimal medium, 4 µM, read-out: Growth rate) of the same compound?
Its activity at 4 µM is 95.3%.

What about the activity at 40 µM ([2]; KT2440, minimal medium, 40 µM, read-out: Final Backscatter) of the same compound?
The activity at 40 µM was 101%.

And the activity at 40 µM ([2]; KT2440, minimal medium, 40 µM, read-out: Growth rate)?
Its activity at 40 µM is 97.1%.

What about the activity at 400 µM ([2]; KT2440, minimal medium, 400 µM, read-out: Final Backscatter) of the same compound?
Its activity at 400 µM is 110%.

And the activity at 400 µM ([2]; KT2440, minimal medium, 400 µM, read-out: Growth rate)?
The activity at 400 µM was 106%.

What about the “Lag Phase” value ([2]; complex medium, 4 µM) of the same compound?
Its value is 97,7%.

What about the “Lag Phase” value ([2]; complex medium, 40 µM) of the same compound?
Its value is 98,5%.

What about the “Lag Phase” value ([2]; complex medium, 400 µM) of the same compound?
The value was 98,5%.

What about the “Lag Phase” value ([2]; minimal medium, 4 µM) of the same compound?
Its value is 102,8%.

And the “Lag Phase” value ([2]; minimal medium, 40 µM)?
Its value is 101,6%.

And the “Lag Phase” value ([2]; minimal medium, 400 µM)?
Its value is 103,2%.
